Among the data in PubChem BioAssay (NCI) are GI50 and TGI values, retold here.

“And” between values parts separate entries of the source, which are not always exact repeats. Equal values may be shown once.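 Grown in 96-well plates, cells were treated for 48 hours with each compound at five concentrations. Insufficient inhibition: endpoint recorded as highest concentration tested. At the GI50, growth is halved. TGI denotes the concentration required for complete inhibition of growth.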 Where only a bound is given, the exact number is not on record here.

Some test systems named below: MDA-MB-231 breast; HCC-2998 colon; 786-0 renal; PC-3 prostate; HOP-92 NSCLC; M14 melanoma; MOLT-4 leukemia; SR leukemia; IGROV1 ovarian; SF-539 CNS.
Common to all, as to experiment: DTP human tumour cell line panel, 48 h

With `CO/N=C(\COc1ccc2c(c1)[nH]c1ccccc12)c1ccc(OC)cc1`, the GI50 was more than 100 µM with MDA-MB-231 breast; more than 100 µM in the assay with HCC-2998 colon; 7180 nM in the assay with 786-0 renal; 18.3 µM in the assay on PC-3 prostate; 11.9 µM in the assay on HOP-92 NSCLC; more than 100000 nM in the assay on M14 melanoma. In addition, the GI50 in the assay on MOLT-4 leukemia was 27.9 µM; with SR leukemia, 71600 nM; in the assay with IGROV1 ovarian, 31500 nM; in the assay on SF-539 CNS it was 13800 nM. Further, the TGI in the assay on MDA-MB-231 breast, in the assay with HCC-2998 colon, in the assay on 786-0 renal, in the assay on PC-3 prostate, with HOP-92 NSCLC and in the assay on M14 melanoma was more than 100 µM each time. Moreover, the TGI with MOLT-4 leukemia, with SR leukemia, in the assay with IGROV1 ovarian and in the assay on SF-539 CNS was more than 100 µM in each case.

In the case of `CNC(=S)Nc1ccc(OC)c2ccccc12`, the TGI in the assay on MDA-MB-231 breast, with HCC-2998 colon, in the assay on 786-0 renal, with PC-3 prostate, with HOP-92 NSCLC and in the assay on M14 melanoma was more than 10 µM throughout. In addition, the TGI in the assay with MOLT-4 leukemia, in the assay with SR leukemia, in the assay on IGROV1 ovarian and with SF-539 CNS was more than 10 µM each time.

As for `O=C(Nc1cccc(Cl)c1)Nn1cnnc1`, the GI50 in the assay with MDA-MB-231 breast was more than 50 µM; in the assay with HCC-2998 colon it was more than 50 µM; in the assay on 786-0 renal, more than 50000 nM; in the assay with PC-3 prostate, more than 50 µM; with HOP-92 NSCLC it was 12.7 µM; in the assay on M14 melanoma, more than 50000 nM. In addition, the GI50 is more than 50 µM in the assay on MOLT-4 leukemia, more than 50000 nM in the assay on IGROV1 ovarian and more than 50000 nM with SF-539 CNS. Besides, the TGI was more than 100 µM with MDA-MB-231 breast; more than 100 µM in the assay on HCC-2998 colon; more than 100 µM with 786-0 renal; more than 100 µM in the assay on PC-3 prostate; 50 µM and > 100 µM with HOP-92 NSCLC; more than 100 µM in the assay on M14 melanoma. The TGI in the assay on MOLT-4 leukemia, in the assay on SR leukemia, with IGROV1 ovarian and with SF-539 CNS was more than 100 µM in each case.

Consider `CCN1C(=O)N(CC)C2C1NN=c1s/c(=C\c3ccc(Cl)cc3Cl)c(=O)n12` (configuration not stated), for which the GI50 is 0.0336 µM in the assay on MDA-MB-231 breast; 0.0367 µM in the assay with HCC-2998 colon; 50.9 nM in the assay with 786-0 renal; 0.0408 µM with PC-3 prostate; 0.275 µM with HOP-92 NSCLC; 30.4 nM with M14 melanoma. Besides, the GI50 was 0.0421 µM with MOLT-4 leukemia, 31.9 nM in the assay on SR leukemia, 43.7 nM in the assay with IGROV1 ovarian and 24.1 nM with SF-539 CNS. Also, the TGI is 4.79 µM with MDA-MB-231 breast; 10.9 µM in the assay on HCC-2998 colon; more than 48.8 µM in the assay with 786-0 renal; more than 53.4 µM in the assay with PC-3 prostate; 64 µM in the assay with HOP-92 NSCLC; more than 64.5 µM in the assay on MOLT-4 leukemia. For the same compound, the TGI in the assay with SR leukemia is more than 24.8 µM; in the assay on IGROV1 ovarian, more than 44.4 µM; in the assay on SF-539 CNS, 0.0698 µM.

Regarding `C=C1CCC2C3(C)COC(C)(C)OC3CCC2(C)C1C/C=C1/C(=O)OCC1OC(C)=O` (configuration not stated), the GI50 with MDA-MB-231 breast was 7.07 µM; in the assay with HCC-2998 colon it was 15.2 µM; in the assay on 786-0 renal, 2890 nM; in the assay on PC-3 prostate, 10.2 µM; in the assay on HOP-92 NSCLC, 10.8 µM; with M14 melanoma, 1770 nM. The GI50 with MOLT-4 leukemia was 3.53 µM; with SR leukemia, 2370 nM; in the assay with IGROV1 ovarian, 2030 nM; in the assay on SF-539 CNS, 1720 nM. For the same compound, the TGI worked out at 22.6 µM in the assay with MDA-MB-231 breast; 28.8 µM in the assay on HCC-2998 colon; 8.05 µM with 786-0 renal; 26.2 µM in the assay with PC-3 prostate; 24.2 µM in the assay on HOP-92 NSCLC; 3.78 µM in the assay on M14 melanoma. The TGI was 14.3 µM with MOLT-4 leukemia, 9.03 µM in the assay with SR leukemia, 6.84 µM in the assay with IGROV1 ovarian and 3.3 µM in the assay on SF-539 CNS.

Turning to `C=CCc1c(Cl)nc(Cl)nc1Cl`, the TGI with MDA-MB-231 breast amounted to 1.82 µM; in the assay with HCC-2998 colon, 3.4 µM; in the assay on 786-0 renal, 0.368 µM; with PC-3 prostate, 2.92 µM; with HOP-92 NSCLC, 0.749 µM; with M14 melanoma, 0.0714 µM. The TGI with MOLT-4 leukemia was 0.0625 µM; with SR leukemia it was more than 100 µM; with IGROV1 ovarian it was 1.36 µM; in the assay on SF-539 CNS it was 3.78 µM.

`CC(CO)Nc1cc(-c2[nH]c3cccnc3c2-c2ccc(F)cc2)ccn1` (configuration not stated): the GI50 in the assay with MDA-MB-231 breast was 19.3 µM; with HCC-2998 colon, more than 25 µM; in the assay on 786-0 renal, 18600 nM; in the assay with PC-3 prostate, 21.5 µM; in the assay on HOP-92 NSCLC, 2.74 µM; in the assay on M14 melanoma it was more than 25000 nM. For the same compound, the GI50 is more than 25 µM in the assay on MOLT-4 leukemia, 17000 nM in the assay with SR leukemia, 6770 nM in the assay with IGROV1 ovarian and more than 25000 nM with SF-539 CNS. Moreover, the TGI in the assay with MDA-MB-231 breast, with HCC-2998 colon, in the assay on 786-0 renal, in the assay on PC-3 prostate, in the assay on HOP-92 NSCLC and in the assay on M14 melanoma was more than 25 µM in each case. Further, the TGI in the assay with MOLT-4 leukemia, in the assay with SR leukemia, in the assay on IGROV1 ovarian and in the assay with SF-539 CNS was more than 25 µM each time.

Regarding `CN(C)c1cc2ccccc2oc1=O`, the TGI in the assay with MDA-MB-231 breast, with HCC-2998 colon, in the assay on 786-0 renal, in the assay with PC-3 prostate, in the assay with HOP-92 NSCLC and in the assay with M14 melanoma was more than 100 µM throughout. The TGI in the assay on MOLT-4 leukemia, in the assay on SR leukemia, in the assay with IGROV1 ovarian and in the assay with SF-539 CNS was more than 100 µM throughout.

As for `CCSC1=NC2C(N(CC)C(=O)N2CC)N1/N=C/C=C/c1ccccc1[N+](=O)[O-]` (configuration not stated), the GI50 in the assay with MDA-MB-231 breast is 0.312 µM; in the assay on HCC-2998 colon it was 0.362 µM; with 786-0 renal, 405 nM; in the assay with PC-3 prostate it was 0.187 µM; with HOP-92 NSCLC, 1.17 µM; in the assay on M14 melanoma it was 184 nM. Besides, the GI50 was 0.419 µM in the assay on MOLT-4 leukemia, 89.5 nM with SR leukemia, 246 nM in the assay with IGROV1 ovarian and 80.4 nM in the assay with SF-539 CNS. In addition, the TGI is 39.6 µM with HCC-2998 colon; more than 100 µM in the assay with 786-0 renal; more than 100 µM with PC-3 prostate; more than 83.8 µM in the assay with HOP-92 NSCLC; more than 100 µM with M14 melanoma; more than 100 µM in the assay on MOLT-4 leukemia. Moreover, the TGI was more than 48 µM in the assay on SR leukemia, more than 100 µM in the assay with IGROV1 ovarian and 0.736 µM in the assay on SF-539 CNS.

Consider `O=c1oc2ccccc2c2c1Sc1ccccc1N2`, for which the TGI in the assay on MDA-MB-231 breast, in the assay on HCC-2998 colon, with 786-0 renal, with PC-3 prostate, in the assay on HOP-92 NSCLC and in the assay with M14 melanoma was more than 100 µM in each case. Moreover, the TGI in the assay with MOLT-4 leukemia, in the assay with SR leukemia, in the assay with IGROV1 ovarian and in the assay with SF-539 CNS was more than 100 µM in each case.

A word on the GI50: it is the concentration that inhibits growth by half. Usually TGI stands for the concentration at which net growth stops.
